This note sets out measurements from US20260240878A1, “PTP1B/TC-PTP DUAL INHIBITORS AND PROTEIN DEGRADERS” (Purdue Research Foundation, priority 2023, published 2026).

One experiment deals with MC38 syngeneic tumor. As to the kind of experiment: MC38 syngeneic tumor study. In kind it is in vivo, mouse. The procedure:
Quantification was performed based on six representative images from six sections.
For MC38 syngeneic tumor study, 12 weeks C57BL6 female mice were injected subcutaneously with 10^6 MC38 cells for tumor growth. When tumors reached an average volume of 200 mm^3, mice were tumor size-matched and randomly assigned to different experimental groups for experiments. Mice were injected intraperitoneally with saline or 25 or 50 mg/kg compound 47 daily. Tumor sizes and animal weights were measured twice per week (FIGS. 5B-5C). Tumor volume (mm^3)=(length×width^2)/2. At the end of the experiments, mice were euthanized, and tumors were collected for analysis.

The subject of the next experiment is PTP1B and TC-PTP. The experiment can be described thus: PTP1B/TC-PTP degradation and pJAK1/2 elevation in MEF cells. Format: cell-based, mouse. The note with it: 500 nM, 16 hours. The procedure:
Deletion of TC-PTP or PTP1B abolished the compound 47-induced phosphorylation of the TC-PTP substrate JAK1 or the PTP1B substrate JAK2. Thus, compound 47 efficiently amplifies cellular […] signaling by degrading PTP1B and TC-PTP. U2OS cells were treated with DMSO or 0.2 μM compound 47 for 16 hours and stimulated with 20 ng/ml IFN-γ for 30 minutes. […] DAPI was used to stain the cell nucleus.
The target engagement by compound 47 inside the cell was ascertained. As negative regulators of IFN-γ signaling, PTP1B and TC-PTP dephosphorylate JAK2 at Y1007/Y1008 and JAK1 at Y1034/Y1035, respectively. In addition, TC-PTP can also directly dephosphorylate STAT family members, including STAT1 and STAT3, in the nucleus to comprehensively attenuate IFN signaling. […] In contrast, the addition of compound 47 to PTP1B^−/− MEF cells further increased the IFN-γ mediated TC-PTP substrate pJAK1/Y1034/Y1035 level with no alteration of PTP1B substrate JAK2/Y1007/Y1008 phosphorylation.

The next experiment concerns CD8+ naïve T-cells. The experiment can be described thus: Degradation, STAT phosphorylation and activation in CD8+ naive T-cells (flow cytometry). Format: cell-based, mouse. As to the method:
In (A) purified CD8^+ naïve T-cells from control (Ptpn2^fl/fl) and Lck-Cre; Ptpn2^fl/fl mice (n=3/genotype/condition) were incubated for 48 hours with IL-7 in the presence or absence of compound 47 as indicated, and TC-PTP and PTP1B protein levels were monitored by flow cytometry. (B) show vehicle-treated control, TCPTP-deficient Lck-Cre; Ptpn2^fl/fl and compound 47-treated control naïve CD8^+ T-cells were stimulated with plate-bound α-CD3/α-CD28 for 48 hours to promote T-cell activation. Basal STAT-1 (p(Y701) STAT-1) and STAT-5 (p(Y694) STAT-5) phosphorylation were assessed by flow cytometry. (C) cell size (FSC-A) and the T-cell activation markers CD25, CD69 and CD44 (MFI: mean fluorescence intensities) were measured by flow cytometry. (dot (●) represents Ptpn2^fl/fl+Vehicle, square (▪) represents Lck-Cre; Ptpn2^fl/fl+Vehicle, triangle (▴) represents Ptpn2^fl/fl+ compound 47).
Beyond attenuating JAK/STAT signaling in tumor cells, PTP1B and TC-PTP also have fundamental roles in T-cells, and the deletion of either TC-PTP or PTP1B in T-cells can markedly enhance anti-tumor immunity. TC-PTP attenuates T-cell receptor (TCR) signaling by dephosphorylating and inactivating the Src family kinase LCK. TC-PTP attenuates JAK/STAT1/5 signaling in response to cytokines such as IFNs and IL-2, which are required for the activation, clonal expansion, and differentiation of T-cells. The deletion of TC-PTP in T-cells enhances immunosurveillance and inhibits the growth of syngeneic tumors in mice and the anti-tumor efficacy of adoptively transferred T-cells. PTP1B also negatively regulates IL-2-induced JAK/STAT5 signaling in T-cells, and its deletion or inhibition in vivo can enhance the anti-tumor activity of T-cells. Accordingly, the impact of targeting PTP1B and TC-PTP with compound 47 on JAK/STAT signaling and the activation of T-cells after crosslinking the TCR was assessed. The effects of compound 47 were compared with the genetic deletion of TC-PTP (encoded by Ptpn2) in T-cells (Lck-Cre; Ptpn2^fl/fl). First, the impact of compound 47 on TC-PTP and PTP1B protein levels was assessed by flow cytometry using validated antibodies. […] The degradation of TC-PTP and PTP1B was accompanied by a more than 3-fold increase in STAT1 Y701 phosphorylation and a 2-fold increase in STAT5 Y694 phosphorylation detected after crosslinking the TCR with α-CD3/α-CD28 to activate T-cells (FIG. 9B). Importantly, the promotion of pSTAT1/Y701 and pSTAT5/Y694 by compound 47 treatment exceeded that achieved by the genetic deletion of TC-PTP, consistent with compound 47 targeting both TC-PTP and PTP1B to enhance signaling. […] CD25 (IL-2 receptor a), and CD69 (FIG. 9C). […] This was not necessarily a surprise since TC-PTP, but not PTP1B, attenuates TCR signaling in naive CD8^+ T-cells.

The next experiment addresses T1, TC-PTP (Homo sapiens, UniProt P17706).
T1 sequence (P17706 1-415): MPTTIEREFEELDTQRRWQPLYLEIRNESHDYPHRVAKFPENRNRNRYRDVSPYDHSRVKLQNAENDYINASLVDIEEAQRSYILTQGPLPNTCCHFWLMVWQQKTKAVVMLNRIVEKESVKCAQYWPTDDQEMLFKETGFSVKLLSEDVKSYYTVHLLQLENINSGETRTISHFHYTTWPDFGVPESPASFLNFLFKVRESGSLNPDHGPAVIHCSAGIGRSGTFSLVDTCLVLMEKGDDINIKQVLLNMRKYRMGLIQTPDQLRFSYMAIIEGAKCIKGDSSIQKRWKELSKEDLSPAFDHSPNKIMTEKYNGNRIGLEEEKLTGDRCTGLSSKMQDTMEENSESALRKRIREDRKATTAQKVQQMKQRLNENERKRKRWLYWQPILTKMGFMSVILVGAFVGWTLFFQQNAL
As to the kind of experiment: Degradation assay in HEK293 cells (immunoblotting). Format: cell-based. Details: Degradation assay was conducted in HEK293 cells with 1 μM degrader and 24 hours incubation; endogenous in cells; host or cells: HEK293. The note with it: 16 hours, dose response.

Where [1] appears, read: after crosslinking the TCR with α-CD3/α-CD28.

*1 amine or outer side, *2 acyl side, *3 side chain or, on linkers, in order; H or OH if unused. Where a SMILES comes first, the peptide text is derived from it. [ ]: non-standard residue; d: D form. The star is where a group is joined. NHCH2(1,3-C6H4)CH2CO = O=C(Cc1cccc(CN[*:1])c1)[*:2]; F2Pmp = N[C@@H](Cc1ccc(C(F)(F)P(=O)(O)O)cc1)C(=O)O; Phenylacetyl(4-OH,3-OMe) = COc1cc(CC(=O)*)ccc1O; Benzoyl(3-Br,4-Me) = Cc1ccc(C(=O)*)cc1Br; X1 = Cc1ncsc1-c1ccc([C@H](C)N*)cc1; Hyp = O=C(O)[C@@H]1C[C@@H](O)CN1; Tle = CC(C)(C)[C@H](N)C(=O)O

Turning to `COc1cc(CC(=O)N[C@@H](Cc2ccccc2)C(=O)N[C@@H](Cc2ccc(C(F)(F)P(=O)(O)O)cc2)C(=O)N[C@@H](CCCCNC(=O)c2ccc(C)c(Br)c2)C(=O)NCc2cccc(CC(=O)N[C@H](C(=O)N3C[C@H](O)C[C@H]3C(=O)N[C@@H](C)c3ccc(-c4scnc4C)cc3)C(C)(C)C)c2)ccc1O` [Compound 47, ((4-((S)-3-(((S)-6-(3-bromo-4-methylbenzamido)-1-((3-(2-(((S)-1-((2S,4R)-4-hydroxy-2-(((S)-1-(4-(4-methylthiazol-5-yl)phenyl)ethyl)carbamoyl)pyrrolidin-1-yl)-3,3-dimethyl-1-oxobutan-2-yl)amino)-2-oxoethyl)benzyl)amino)-1-oxohexan-2-yl)amino)-2-((S)-2-(2-(4-hydroxy-3-methoxyphenyl)acetamido)-3-phenylpropanamido)-3-oxopropyl)phenyl)difluoromethyl)phosphonic Acid] ({Phenylacetyl(4-OH,3-OMe)}-F[F2Pmp]K(Benzoyl(3-Br,4-Me))[NHCH2(1,3-C6H4)CH2CO][Tle][Hyp]-X1), the “CD8 T cell infiltration of tumor (CD8α IHC)” value in the experiment with MC38 syngeneic tumor (25 mg/kg) was “high level of CD8-T cell infiltration”. For the same molecule, the MC38 tumor growth result in the experiment on MC38 syngeneic tumor (25 and 50 mg/kg i.p. daily, ten days) was “significantly inhibits MC38 tumor growth”. Further, the “PTP1B and TC-PTP degradation in vivo (MC38 tumor)” value in the experiment on MC38 syngeneic tumor (25 or 50 mg/kg) was “induces PTP1B and TC-PTP degradation in vivo”. For the same molecule, in the experiment on PTP1B and TC-PTP, the “IFN-γ stimulated JAK2 and JAK1 phosphorylation” value was “augmented”; the “PTP1B and TC-PTP removal” value is on record as “complete removal”. In addition, in the experiment with CD8+ naïve T-cells, the “TCR-induced activation of T-cells (cell size, CD44, CD25, CD69)” value is “enhanced the TCR-induced activation of T-cells”. In the experiment with CD8+ naïve T-cells (48 hr treatment), the “TC-PTP and PTP1B protein levels in T-cells” value is reported as “effectively degraded”. In the experiment on CD8+ naïve T-cells (setting [1]), the “increase in STAT1 Y701 phosphorylation” value is reported as “more than 3 fold” and the “increase in STAT5 Y694 phosphorylation” value is recorded as 2 fold. For the same molecule, on TC-PTP, the TC-PTP degradation result was “dose-dependently induced degradation of TC-PTP”.
